Source: patent US11958863B2, “Binding competitors for use in macrophilin-binding pharmaceutical assays and methods of use thereof” (Siemens Healthcare Diagnostics Inc., priority 2018, dated 2024)

What was measured:
[1] = system: everolimus assay antibody (155-M1 Clone); assay: Cross-reactivity with everolimus assay antibody; type: binding, mouse; conditions: for % Cross-Reactivity: everolimus assay antibody 155-M1 clone
Protocol: (§1) The automated DIMENSION® assay system (Siemens Healthcare Diagnostics Inc., Tarrytown, NY), the everolimus (EVRO) assay method uses an immunoassay technique in which free and everolimus-bound antibody-enzyme conjugate is separated using magnetic particles. The assay antibody used for this assay is a mouse monoclonal antibody (cell line: 155-M1). The assay was performed using a method specific FLEX® reagent cartridge (Siemens Healthcare Diagnostics Inc., Tarrytown, NY). The FLEX® reagent cartridge contains a pretreatment reagent, antibody-β-galactosidase conjugate, everolimus analog immobilized on chromium dioxide particles, chlorophenol red β-d-galactopyranoside (CPRG) substrate, and diluent to hydrate the tablets. To perform the EVRO assay, a sample cup (or SSC) containing the whole blood sample to be analyzed and an EVRO FLEX® reagent cartridge were placed appropriately on the DIMENSION® system. The DIMENSION® system mixed and lysed the whole blood sample in the presence of the pretreatment reagent that contains detergents and a displacer (FK506 or FK506 analogs as described previously). This reagent contains a displacer which acts to displace everolimus in the sample from endogenous binding proteins (immunophilins such as FKBPs, etc.). The lysed sample was then mixed with the antibody enzyme conjugate. The everolimus present in the sample was bound by the everolimus antibody. Magnetic particles coated with everolimus analog were added to bind free (unbound) antibody-enzyme conjugate. The reaction mixture was then separated magnetically. Following separation, the supernatant containing the everolimus-antibody-enzyme complex was transferred to a cuvette and mixed with the substrate, chlorophenol red β-d-galactopyranoside (CPRG). β-galactosidase catalyzes the hydrolysis of CPRG to produce chlorophenol red (CPR) that absorbs light maximally at 577 nm. The change in absorbance at 577 nm due to the formation of CPR is directly proportional to the amount of everolimus in the patient's sample and is measured using a bichromatic (577 nm, 700 nm) rate technique.
(§2) Table 2 indicates the cross-reactivities detected for the various displacers of the present disclosure with the everolimus assay antibody (155-M1), while Table 3 indicates the cross-reactivities detected for the various displacers of the present disclosure with the tacrolimus assay antibody (1E2 clone).

[2] = system: tacrolimus assay antibody (1E2 Clone); assay: Cross-reactivity with tacrolimus assay antibody; type: binding; conditions: for Cross-reactivity with tacrolimus assay antibody (in words): 1E2 clone, compared with the '518 patent analog; for % Cross-Reactivity: tacrolimus assay antibody 1E2 clone
Protocol: as §2
Next, the cross-reactivity of each of the analogs used in the everolimus assay was tested with the antibody used in the tacrolimus assay (Table 3). While efforts may be made to minimize reagent carryover from the everolimus assay to the tacrolimus assay, an automated instrument may run both everolimus and tacrolimus (or sirolimus) assays simultaneously. Therefore, due to the use of a large amount of displacer (tacrolimus analogs) present in the everolimus assay, the displacer could be carried into the tacrolimus assay, and this would cause a falsely elevated signal in the tacrolimus assay if cross-reaction were observed.

[3] = system: endogenous binding proteins (immunophilins such as FKBPs); assay: Everolimus (EVRO) DIMENSION immunoassay standard curves with displacers; conditions: whole blood sample
Protocol: as §1
The assay was conducted in the absence of any displacer as well as in the presence of the following displacers: tacrolimus (FK506, as represented by Formula I), FK506 Ester (disclosed in U.S. Pat. No. 7,186,518), FK506 C24 succinate (as represented by Formula VII), Reduced FK506 (as represented by Formula IV), FK506 22-oxime-32-isocyanatoacetatethyl ester (as represented by Formula VI), and FK506 oxime (as represented by Formula V).
The ability of the FK analogs to displace everolimus drug in the everolimus assay is a function of their FKBP (macrophilin) binding. So the curve size after adding the displacer indicates the ability of their FKBP binding: the larger the curve size, the better the binding.

| Everolimus standard curve signal with displacer ([3]; BV 0 ng/mL everolimus) | Everolimus standard curve signal with displacer ([3]; BV 5.5 ng/mL everolimus) | Everolimus standard curve signal with displacer ([3]; BV 11.2 ng/mL everolimus) | Everolimus standard curve signal with displacer ([3]; BV 21.9 ng/mL everolimus) | Everolimus standard curve signal with displacer ([3]; BV 34.3 ng/mL everolimus) | SMILES | % Cross-Reactivity [1] | Cross-reactivity with tacrolimus assay antibody (in words) [2] | % Cross-Reactivity [2] | Cross-reactivity with everolimus assay antibody (in words) ([1]; 155-M1 clone) |
| --- | --- | --- | --- | --- | --- | --- | --- | --- | --- |
| 18 | 68 | 102 | 140 | 154 | CCC[C@@H]1CC(C)C[C@H](C)C[C@H](OC)[C@H]2O[C@@](O)(C(=O)C(=O)N3CCCC[C@H]3C(=O)O[C@H](C(C)C[C@@H]3CC[C@@H](OC(=O)NCC(=O)OCC)[C@H](OC)C3)[C@H](C)[C@@H](O)CC1=NOCC(=O)O)[C@H](C)C[C@@H]2OC (stereo partly drawn) [FK-506-1] | 0.02% | much lower cross-reactivities | 1.5% |  |
| 16 | 71 | 108 | 145 | 157 | C=CC[C@@H]1/C=C(\C)C[C@H](C)C[C@H](OC)[C@H]2O[C@@](O)(C(=O)C(=O)N3CCCC[C@H]3C(=O)O[C@H](/C(C)=C/[C@@H]3CC[C@@H](O)[C@H](OC)C3)[C@H](C)[C@@H](OC(=O)CCC(=O)O)CC1=O)[C@H](C)C[C@@H]2OC [24-Succinate FK506, FK506 C24 succinate] | 0.01% | much lower cross-reactivities | 13.3% |  |
| 17 | 67 | 104 | 143 | 156 | C=CC[C@@H]1/C=C(\C)C[C@H](C)C[C@H](OC)[C@H]2O[C@@](O)(C(=O)C(=O)N3CCCC[C@H]3C(=O)O[C@H](/C(C)=C/[C@@H]3CC[C@@H](O)[C@H](OC)C3)[C@H](C)[C@@H](O)CC1=O)[C@H](C)C[C@@H]2OC [FK506, Tacrolimus, reference compound] | 0.01% |  | 100% | substantially no cross-reactivity |
